In ChEMBL document CHEMBL1144031, “[4-(Phenoxy)pyridin-3-yl]methylamines: a new class of selective noradrenaline reuptake inhibitors” (Bioorg Med Chem Lett, 2008):
Values belong to the molecule of their own block, whether it stands above or below them.

Legend:
[1] = target: Sodium-dependent serotonin transporter (Homo sapiens, UniProt P31645); experiment: Inhibition of [3H]Citalopram uptake in human 5HTT transfected HEK293 cells; type: cell-based
[2] = target: Sodium-dependent noradrenaline transporter (Homo sapiens, UniProt P23975)
Sequence of Sodium-dependent noradrenaline transporter (P23975 whole entry): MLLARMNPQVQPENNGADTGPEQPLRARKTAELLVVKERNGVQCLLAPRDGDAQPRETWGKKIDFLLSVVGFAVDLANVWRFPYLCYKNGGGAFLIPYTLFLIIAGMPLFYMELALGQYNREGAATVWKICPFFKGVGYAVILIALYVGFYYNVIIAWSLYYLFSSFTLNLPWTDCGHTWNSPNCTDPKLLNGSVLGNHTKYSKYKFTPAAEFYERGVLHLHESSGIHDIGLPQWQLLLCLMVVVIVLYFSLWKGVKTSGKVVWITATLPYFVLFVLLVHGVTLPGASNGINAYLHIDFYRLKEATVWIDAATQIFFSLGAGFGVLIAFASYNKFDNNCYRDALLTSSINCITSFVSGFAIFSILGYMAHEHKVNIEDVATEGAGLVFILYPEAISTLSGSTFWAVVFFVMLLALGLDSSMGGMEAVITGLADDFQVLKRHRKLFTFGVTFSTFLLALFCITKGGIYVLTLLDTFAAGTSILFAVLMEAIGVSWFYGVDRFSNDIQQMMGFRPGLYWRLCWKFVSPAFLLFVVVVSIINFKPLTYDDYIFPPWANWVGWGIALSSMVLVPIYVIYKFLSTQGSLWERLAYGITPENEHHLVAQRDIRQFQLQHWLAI
Description: Inhibition of [3H]Nisoxetine uptake in human noradrenaline transporter transfected HEK293 cells

[3] = target: Sodium-dependent dopamine transporter (Homo sapiens, UniProt Q01959); experiment: Inhibition of [3H]WIN-35428 uptake in human DAT transfected HEK293 cells; type: cell-based
Sequence of Sodium-dependent dopamine transporter (Q01959 whole entry): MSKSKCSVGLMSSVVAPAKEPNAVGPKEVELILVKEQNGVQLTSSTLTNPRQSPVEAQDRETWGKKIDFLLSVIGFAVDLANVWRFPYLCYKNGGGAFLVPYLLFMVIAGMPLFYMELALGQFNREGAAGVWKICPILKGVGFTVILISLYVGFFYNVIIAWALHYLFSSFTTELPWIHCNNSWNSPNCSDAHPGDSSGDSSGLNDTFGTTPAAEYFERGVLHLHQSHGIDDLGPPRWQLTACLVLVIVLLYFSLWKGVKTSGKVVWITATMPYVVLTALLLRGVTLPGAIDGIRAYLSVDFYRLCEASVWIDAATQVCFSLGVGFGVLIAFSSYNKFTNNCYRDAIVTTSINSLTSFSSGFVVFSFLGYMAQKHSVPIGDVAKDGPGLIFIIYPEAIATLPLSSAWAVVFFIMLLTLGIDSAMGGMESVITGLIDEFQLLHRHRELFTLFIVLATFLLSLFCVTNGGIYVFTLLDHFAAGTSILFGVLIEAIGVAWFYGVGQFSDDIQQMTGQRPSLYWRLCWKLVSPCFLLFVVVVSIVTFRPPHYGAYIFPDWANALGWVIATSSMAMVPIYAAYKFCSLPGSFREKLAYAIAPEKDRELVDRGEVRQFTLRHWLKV

[4] = Metabolic stability assessed as intrinsic clearance in human liver microsome; type: ADME; details: liver microsomes
P-gp [5] = experiment: Apparent permeability from apical to basolateral side of the dog MDCK cells expressing P-gp transporter; type: ADME, cell-based, Canis lupus familiaris; details: MDCK-MDR1
P-gp [6] = experiment: Apparent permeability from basolateral to apical side of the dog MDCK cells expressing Pgp transporter; type: ADME, cell-based, Canis lupus familiaris; details: MDCK-MDR1
[7] = Lipophilicity, logD at pH 7.4; type: physicochemical; details: buffer
[8] = target: Voltage-gated inwardly rectifying potassium channel KCNH2 (Homo sapiens, UniProt Q12809); experiment: Displacement of [3H]dofetilide from human ERG channel
Sequence of Voltage-gated inwardly rectifying potassium channel KCNH2 (Q12809 whole entry): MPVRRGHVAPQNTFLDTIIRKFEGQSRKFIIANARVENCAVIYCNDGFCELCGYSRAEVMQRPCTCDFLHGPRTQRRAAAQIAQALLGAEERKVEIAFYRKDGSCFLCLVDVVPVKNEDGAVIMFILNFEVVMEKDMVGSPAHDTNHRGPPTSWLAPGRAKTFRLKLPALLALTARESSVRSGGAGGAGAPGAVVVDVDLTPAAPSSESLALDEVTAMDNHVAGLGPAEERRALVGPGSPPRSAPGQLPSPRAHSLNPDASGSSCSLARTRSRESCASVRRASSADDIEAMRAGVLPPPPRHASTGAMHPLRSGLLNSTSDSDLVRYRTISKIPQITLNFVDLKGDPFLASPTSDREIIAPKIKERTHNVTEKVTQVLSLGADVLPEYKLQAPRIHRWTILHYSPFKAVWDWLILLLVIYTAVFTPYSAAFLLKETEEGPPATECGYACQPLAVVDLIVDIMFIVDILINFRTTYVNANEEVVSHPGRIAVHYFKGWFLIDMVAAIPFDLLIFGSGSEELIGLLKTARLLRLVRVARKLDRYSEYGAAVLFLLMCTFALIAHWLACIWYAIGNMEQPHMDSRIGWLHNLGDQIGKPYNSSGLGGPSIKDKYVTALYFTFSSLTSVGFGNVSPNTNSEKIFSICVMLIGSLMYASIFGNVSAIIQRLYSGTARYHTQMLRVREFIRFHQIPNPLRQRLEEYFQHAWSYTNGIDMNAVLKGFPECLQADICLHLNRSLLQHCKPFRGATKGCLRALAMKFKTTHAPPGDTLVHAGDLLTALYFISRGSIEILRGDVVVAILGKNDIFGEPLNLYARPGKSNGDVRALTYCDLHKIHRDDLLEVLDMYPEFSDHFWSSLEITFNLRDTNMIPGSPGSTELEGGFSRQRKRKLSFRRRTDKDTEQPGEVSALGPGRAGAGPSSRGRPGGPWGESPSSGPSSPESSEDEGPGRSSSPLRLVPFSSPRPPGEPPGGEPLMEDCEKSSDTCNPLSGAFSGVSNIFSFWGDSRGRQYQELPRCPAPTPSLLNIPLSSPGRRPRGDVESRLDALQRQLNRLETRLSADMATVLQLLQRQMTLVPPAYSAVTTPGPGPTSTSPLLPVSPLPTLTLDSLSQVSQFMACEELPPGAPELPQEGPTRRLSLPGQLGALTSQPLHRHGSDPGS

[9] = Dissociation constant, pKa of the compound; type: physicochemical
Cytochrome P450 2D6 = Cytochrome P450 2D6 (Homo sapiens, UniProt P10635); experiment: Inhibition of CYP2D6; type: ADME
Sequence of Cytochrome P450 2D6 (P10635 whole entry): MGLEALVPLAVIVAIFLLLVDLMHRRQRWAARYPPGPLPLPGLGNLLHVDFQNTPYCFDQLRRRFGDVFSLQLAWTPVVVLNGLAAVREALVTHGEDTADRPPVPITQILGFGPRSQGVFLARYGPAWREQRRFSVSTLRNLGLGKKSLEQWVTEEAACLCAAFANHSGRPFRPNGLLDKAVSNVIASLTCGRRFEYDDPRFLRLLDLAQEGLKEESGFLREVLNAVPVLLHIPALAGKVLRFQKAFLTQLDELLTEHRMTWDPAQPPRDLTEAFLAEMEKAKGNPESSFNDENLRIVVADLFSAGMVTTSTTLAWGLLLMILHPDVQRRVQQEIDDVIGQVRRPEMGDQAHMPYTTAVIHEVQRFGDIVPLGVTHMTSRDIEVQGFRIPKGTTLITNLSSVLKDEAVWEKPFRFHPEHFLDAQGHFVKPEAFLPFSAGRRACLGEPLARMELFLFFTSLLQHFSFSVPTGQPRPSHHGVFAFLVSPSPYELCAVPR

Cytochrome P450 3A4 = Cytochrome P450 3A4 (Homo sapiens, UniProt P08684); experiment: Inhibition of CYP3A4; type: ADME
Sequence of Cytochrome P450 3A4 (P08684 whole entry): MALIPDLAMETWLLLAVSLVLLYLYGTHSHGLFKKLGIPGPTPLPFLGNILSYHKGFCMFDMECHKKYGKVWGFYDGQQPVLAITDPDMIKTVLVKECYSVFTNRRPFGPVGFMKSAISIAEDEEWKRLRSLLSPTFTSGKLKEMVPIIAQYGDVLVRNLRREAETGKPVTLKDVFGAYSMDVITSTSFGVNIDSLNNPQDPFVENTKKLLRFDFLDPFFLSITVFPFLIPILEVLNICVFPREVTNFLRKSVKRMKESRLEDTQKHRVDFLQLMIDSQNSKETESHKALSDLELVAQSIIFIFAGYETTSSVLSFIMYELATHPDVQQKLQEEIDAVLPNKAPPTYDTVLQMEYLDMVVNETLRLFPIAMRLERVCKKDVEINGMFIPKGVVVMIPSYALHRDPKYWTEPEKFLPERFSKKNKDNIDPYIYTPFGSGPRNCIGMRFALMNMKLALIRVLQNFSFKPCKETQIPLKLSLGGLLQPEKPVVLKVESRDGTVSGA

[10] = target: T1, 5-hydroxytryptamine receptor 2C (Homo sapiens) (UniProt P28335); experiment: Inhibition of 5HT2C receptor at 10 uM
T1 sequence (whole entry): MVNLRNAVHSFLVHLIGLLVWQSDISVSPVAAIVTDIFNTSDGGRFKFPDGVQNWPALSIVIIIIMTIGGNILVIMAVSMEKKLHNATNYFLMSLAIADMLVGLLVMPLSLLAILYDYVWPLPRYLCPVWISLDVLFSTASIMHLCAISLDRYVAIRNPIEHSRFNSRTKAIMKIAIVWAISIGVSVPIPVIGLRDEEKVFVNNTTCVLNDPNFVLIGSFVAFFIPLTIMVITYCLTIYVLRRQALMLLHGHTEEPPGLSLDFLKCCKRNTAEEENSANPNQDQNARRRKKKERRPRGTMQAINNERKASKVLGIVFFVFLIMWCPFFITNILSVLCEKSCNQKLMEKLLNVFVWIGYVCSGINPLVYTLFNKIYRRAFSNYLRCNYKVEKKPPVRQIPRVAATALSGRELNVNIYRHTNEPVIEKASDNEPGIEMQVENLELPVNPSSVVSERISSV

Cytochrome P450 1A2 = target: T2, Cytochrome P450 1A2 (Homo sapiens, UniProt P05177); experiment: Inhibition of CYP1A2; type: ADME
T2 sequence (P05177 whole entry): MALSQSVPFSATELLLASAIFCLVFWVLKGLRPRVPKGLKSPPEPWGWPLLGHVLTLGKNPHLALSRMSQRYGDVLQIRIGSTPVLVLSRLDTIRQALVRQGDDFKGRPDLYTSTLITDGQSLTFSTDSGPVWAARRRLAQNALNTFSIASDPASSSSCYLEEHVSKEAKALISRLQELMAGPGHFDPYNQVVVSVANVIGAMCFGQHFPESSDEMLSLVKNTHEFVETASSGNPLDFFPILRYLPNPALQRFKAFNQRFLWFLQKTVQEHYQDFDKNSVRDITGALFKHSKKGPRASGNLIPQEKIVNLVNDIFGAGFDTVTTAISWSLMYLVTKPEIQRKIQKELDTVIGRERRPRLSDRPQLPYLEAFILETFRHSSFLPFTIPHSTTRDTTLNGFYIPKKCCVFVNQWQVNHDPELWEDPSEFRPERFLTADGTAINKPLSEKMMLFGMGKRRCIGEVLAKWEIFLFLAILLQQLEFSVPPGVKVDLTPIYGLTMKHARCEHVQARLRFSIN

[11] = Apparent permeability from apical to basolateral side of the human CaCO2 membrane; type: ADME, cell-based; details: Caco-2
[12] = target: Mu-type opioid receptor (Homo sapiens) (UniProt P35372); experiment: Inhibition of mu opioid receptor at 10 uM
Sequence of Mu-type opioid receptor (Homo sapiens) (P35372 whole entry): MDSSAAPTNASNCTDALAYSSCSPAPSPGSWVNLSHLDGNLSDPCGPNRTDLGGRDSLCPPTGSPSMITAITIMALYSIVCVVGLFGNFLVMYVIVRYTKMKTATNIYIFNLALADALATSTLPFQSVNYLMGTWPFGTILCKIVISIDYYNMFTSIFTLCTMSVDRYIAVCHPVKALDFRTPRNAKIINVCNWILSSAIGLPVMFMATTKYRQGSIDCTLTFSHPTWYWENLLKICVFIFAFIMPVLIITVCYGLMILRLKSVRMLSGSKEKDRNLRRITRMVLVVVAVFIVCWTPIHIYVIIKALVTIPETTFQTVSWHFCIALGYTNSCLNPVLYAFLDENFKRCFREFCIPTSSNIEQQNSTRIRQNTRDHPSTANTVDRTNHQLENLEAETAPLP

[13] = Displacement of [3H]noradrenaline from rat noradrenaline transporter expressed in HEK293 cells; type: cell-based
[14] = target: Kappa-type opioid receptor (Homo sapiens) (UniProt P41145); experiment: Inhibition of kappa opioid receptor at 10 uM
Sequence of Kappa-type opioid receptor (Homo sapiens) (P41145 whole entry): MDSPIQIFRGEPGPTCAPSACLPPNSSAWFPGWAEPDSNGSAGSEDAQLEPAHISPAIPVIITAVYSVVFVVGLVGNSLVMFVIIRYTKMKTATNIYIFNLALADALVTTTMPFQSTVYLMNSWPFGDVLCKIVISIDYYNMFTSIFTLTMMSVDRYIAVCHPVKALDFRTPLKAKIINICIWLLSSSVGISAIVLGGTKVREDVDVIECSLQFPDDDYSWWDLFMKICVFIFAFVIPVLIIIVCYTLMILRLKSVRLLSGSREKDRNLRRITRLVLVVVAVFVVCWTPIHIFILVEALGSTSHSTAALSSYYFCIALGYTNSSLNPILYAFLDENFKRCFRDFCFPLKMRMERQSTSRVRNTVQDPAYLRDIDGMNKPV

[15] = Binding affinity to calcium channel L-type at diltiazem site
Rattus norvegicus = experiment: Increase in noradrenaline level in interstitial fluid of conscious rat prefrontal cortex at 0.3 mg/kg, sc relative to baseline; type: functional; details: route subcutaneous
[16] = Apparent permeability from basolateral to apical side of the human CaCO2 membrane; type: ADME, cell-based; details: Caco-2
Hepatocyte = experiment: Metabolic stability assessed as intrinsic clearance in human hepatocytes; type: ADME, cell-based, Liver
[17] = Half life in human liver microsome; type: ADME; details: liver microsomes
[18] = Lipophilicity, logP of the compound; type: physicochemical; details: octanol/water
[19] = Binding affinity to sodium channel site 2

Sequence of Sodium-dependent serotonin transporter (P31645 whole entry): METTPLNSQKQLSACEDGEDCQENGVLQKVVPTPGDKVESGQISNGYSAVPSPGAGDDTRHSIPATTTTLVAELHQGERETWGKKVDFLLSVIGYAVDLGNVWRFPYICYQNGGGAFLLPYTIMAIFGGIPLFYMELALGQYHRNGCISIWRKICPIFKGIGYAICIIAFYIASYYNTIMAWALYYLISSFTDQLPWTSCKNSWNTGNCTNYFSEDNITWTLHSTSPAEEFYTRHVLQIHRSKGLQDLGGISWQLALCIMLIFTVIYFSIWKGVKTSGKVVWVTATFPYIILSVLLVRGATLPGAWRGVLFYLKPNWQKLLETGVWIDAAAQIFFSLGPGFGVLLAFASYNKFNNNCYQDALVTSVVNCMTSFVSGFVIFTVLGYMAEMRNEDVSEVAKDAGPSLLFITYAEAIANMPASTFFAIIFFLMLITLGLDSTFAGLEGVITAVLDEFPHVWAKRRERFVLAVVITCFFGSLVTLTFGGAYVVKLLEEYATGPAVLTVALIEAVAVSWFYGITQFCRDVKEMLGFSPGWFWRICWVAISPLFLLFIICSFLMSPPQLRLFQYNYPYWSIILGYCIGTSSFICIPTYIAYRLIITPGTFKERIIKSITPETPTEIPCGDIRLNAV

SMILES: CCCc1ccccc1Oc1cc(C)ncc1CN(C)C
Ki [1]: 2820 nM | Ki [2]: 159 nM | Ki [3]: 2250 nM

SMILES: CCCc1ccccc1Oc1cc(C)ncc1CNC
Ki [1]: 821 nM | Ki [2]: 438 nM | Ki [3]: 1980 nM

SMILES: Cc1cc(Oc2ccccc2C(C)C)c(CN(C)C)cn1
Ki [1]: 1470 nM | Ki [2]: 13 nM | microsomal CLint [4]: 17 µL/min/mg | Papp A→B (P-gp [5]): 38 ×10⁻⁶ cm/s | Papp B→A (P-gp [6]): 39 ×10⁻⁶ cm/s | logD [7]: 2.5 | Ki [3]: 2880 nM

SMILES: CCOc1ccccc1Oc1cc(C)ncc1CN(C)C
Ki [1]: 4750 nM | Ki [3]: 2150 nM

SMILES: CCc1ccccc1Oc1cc(C)ncc1CNC
Ki [1]: 440 nM | Ki [2]: 366 nM | Ki [3]: 2280 nM

SMILES: Cc1cc(Oc2ccccc2Oc2ccccc2)c(CN(C)C)cn1
Ki [1]: 4060 nM | Ki [2]: 10 nM | microsomal CLint [4]: 29 µL/min/mg | Papp A→B (P-gp [5]): 41 ×10⁻⁶ cm/s | Papp B→A (P-gp [6]): 36 ×10⁻⁶ cm/s | pKa [9]: 4.4 | logD [7]: 2.4 | IC50 (Cytochrome P450 2D6): 610 nM | Ki [3]: 2640 nM

SMILES: COc1ccccc1Oc1cc(C)ncc1CN(C)C
Ki [1]: 1420 nM | Ki [2]: 296 nM | Ki [3]: 4060 nM

SMILES: CNCc1cnc(C)cc1Oc1ccccc1C(C)C
Ki [1]: 1980 nM | Ki [2]: 82 nM | Ki [3]: 2130 nM

SMILES: CNCc1cnc(C)cc1Oc1ccccc1Oc1ccccc1
Ki [1]: 823 nM | IC50 (Cytochrome P450 3A4): > 3000 nM | inhibition [10]: > 80% | Ki [2]: 10 nM | IC50 (Cytochrome P450 1A2): > 3000 nM | microsomal CLint [4]: < 7 µL/min/mg | Papp A→B [11]: 11 ×10⁻⁶ cm/s | inhibition [12]: > 80% | Papp A→B (P-gp [5]): 25 ×10⁻⁶ cm/s | IC50 [13]: 2.5 nM | inhibition [14]: > 80% | Papp B→A (P-gp [6]): 41 ×10⁻⁶ cm/s | pKa [9]: 4.4 | Ki [15]: 1200 nM | Ki [8]: 5800 nM | Activity (Rattus norvegicus): 400% | Papp B→A [16]: 19 ×10⁻⁶ cm/s | logD [7]: 1.6 | CL (Hepatocyte): 8 µL/min/mg | IC50 (Cytochrome P450 2D6): 3400 nM | half-life [17]: > 2 h | logP [18]: 4.4 | Ki [19]: 3400 nM | Ki [3]: 1910 nM

The next molecules have a lower Ki [1] than those just listed; values first:

Ki [1]: 384 nM | Ki [2]: 58 nM | Ki [3]: 1930 nM
SMILES: CSc1ccccc1Oc1cc(C)ncc1CN(C)C

Ki [1]: 279 nM | Ki [2]: 27 nM | microsomal CLint [4]: < 7 µL/min/mg | logD [7]: 2.1 | Ki [3]: 2660 nM
SMILES: CCc1ccccc1Oc1cc(C)ncc1CN(C)C
IC50 [8]: > 20000 nM

Ki [1]: 265 nM | Ki [2]: 921 nM | Ki [3]: 4800 nM
SMILES: CNCc1cnc(C)cc1Oc1ccccc1OC

Ki [1]: 242 nM | Ki [2]: 131 nM | Ki [3]: 1160 nM
SMILES: Cc1cc(Oc2ccccc2Cl)c(CN(C)C)cn1

Ki [1]: 235 nM | Ki [2]: 194 nM | Ki [3]: 1410 nM
SMILES: Cc1cc(Oc2ccccc2C)c(CN(C)C)cn1

Ki [1]: 218 nM | Ki [2]: 461 nM | Ki [3]: 2390 nM
SMILES: CCOc1ccccc1Oc1cc(C)ncc1CNC

Ki [1]: 136 nM | Ki [2]: 951 nM | Ki [3]: 1520 nM
SMILES: CNCc1cnc(C)cc1Oc1ccccc1C

Ki [1]: 133 nM | Ki [2]: 232 nM | Ki [3]: 1750 nM
SMILES: CNCc1cnc(C)cc1Oc1ccccc1SC

Ki [1]: 88 nM | Ki [2]: 255 nM | Ki [3]: 834 nM
SMILES: CNCc1cnc(C)cc1Oc1ccccc1Cl

Ki [1]: 18 nM | Ki [2]: 74 nM | Ki [3]: 4350 nM
SMILES: CCc1cc(Cl)ccc1Oc1cc(C)ncc1CNC

Ki [1]: 13 nM | Ki [2]: 22 nM
SMILES: CCc1cc(Cl)ccc1Oc1cc(C)ncc1CN(C)C
